Source: patent publication US12521439B2, “Methods and materials for modulating Nrf2 pathway” (The General Hospital Corporation, priority 2019, dated 2026)
Entries after “also recorded” stand apart in the source; their conditions may differ. Structures can show the parent of a compound that is named as a salt. Each block holds one compound with its values, some of them ahead of it.

Legend:
[1] = test system: U87 glioma cells; experiment: Cell viability (CellTiter-Glo), U87; assay type: cell-based, human; details: for U87 cell viability: same doses as ARE test, FIG. 12D
Protocol: Cell culture: MDA-MB-231 and U87 (U87-MG) cells were obtained from the American Type Culture Collection (ATCC). 293T human embryonic kidney fibroblasts were provided by Dr. Xandra Breakefield (Massachusetts General Hospital). All three cell lines were grown in Dulbecco's modified Eagle medium supplemented with 10% fetal bovine serum (Gemini Bio-products), 100 U penicillin, and 0.1 mg/mL streptomycin (Sigma). All cells were maintained at 37° C. in a humidified 5% CO2 incubator. GSCs were obtained from tumor tissues of GBM patients following surgical resection, under approval from the corresponding Institutional Review Board. These cells have been previously characterized (ref. 37-39) and were maintained in culture as neurospheres in Neurobasal medium (Gibco) supplemented with heparin (2 μg/mL; Sigma) and recombinant EGF (20 ng/mL) and bFGF-2 (10 ng/mL; Peprotech). Human Astrocytes were obtained from ScienCell and cultured in Astrocytes Medium (ScienCell)
(§1) Cell viability: Cells were plated in 96-well plates and treated with the corresponding compounds. Cell viability was measured by adding 25 μl/well of CellTiter-Glo (Promega) followed by 10 minutes incubation and transfer to a white 96-well plate. Bioluminescence was quantified using Synergy HTX multimode reader (Biotek).

[2] = test system: ARE (Nrf2 pathway); experiment: ARE-Gluc luciferase reporter (normalized to SV40-Vluc); assay type: cell-based, human; details: for ARE activity: U87, CINN 100, FUM 50 μM, SULF 5 μM, FIG. 12C
Source text: DNA expression constructs: ARE reporter was designed and generated based on our previously published reporter for monitoring of the transcription factor Nuclear Factor Kappa B (NFkB). NFkB TRE elements were removed and replaced with four copies of the ARE enhancer sequence. This reporter consists of a CSCW lentivirus vector in which we have introduced two copies of the 1.2 kb chicken beta-globin (HS4) insulator elements, a TATA box acting as a minimal promoter upstream of the secreted Gaussia luciferase (Gluc). pcDNA3-HA2-Keap1 (Addgene plasmid #21556) and pcDNA3-HA2-Keap1 delta BTB (Addgene plasmid #21593) were a gift from Yue Xiong^2. pHAGE DN Cullin 3 (DN-CUL3) was a gift from Stephen Elledge (Addgene plasmid #41913). Constructs expressing constitutively active Gluc, Firefly luciferase (Fluc) and Vargula luciferase (Vluc) were previously describe. MISSION shRNA Bacterial Glycerol Stocks for Keap1 as well as a non-target shRNA were obtained from Sigma. Transfection of plasmid DNA was performed using Lipofectamine 2000 (Invitrogen) as per manufacturer's guidelines. Lentivirus packaging and titration was performed in 293T cells by the MGH viral vector core facility following standard protocols. Keap1 mutant C151S plasmid was kindly provided by Dr. Wooyoung Hur.
Luciferase assay: Coelenterazine (20 μM; Nanolight), The Gluc substrate was added to a 25 μL aliquot of conditioned medium and photon counts were measured using a luminometer. Similarly, the secreted Vluc activity was measured by adding its substrate vargulin (5 ng/mL; Nanolight). Cells stably expressing Gluc under the ARE enhancer sequence and Vluc under the constitutively active SV40 minimal promoter were used to determine the ARE reporter activity. The normalized Gluc/Vluc ratio was used as a marker for ARE activation.

[3] = test system: cancer cells; experiment: Cancer cell death with OBT, JQ1, OBT-JQ1; assay type: cell-based; details: FIG. 23
Protocol: as §1

[4] = target: T1, BRD4 (Homo sapiens, UniProt O60885); experiment: BRD4 degradation in glioma cells; assay type: cell-based; parameters: endogenous in cells; details: FIG. 15
Protocol: (§2) Immunoblotting and Immunoprecipitation analysis: Antibodies against PDI, GAPDH, HA-tag, Ubiquitin, Keap1 and beta-actin (Cell Signaling) as well as secondary Horseradish peroxidase (HRP) conjugated antibodies: sheep anti-mouse IgG-HRP and donkey antirabbit IgG-HRP (Amersham Pharmacia Biotech) were used in this study. For protein expression analysis, cells were lysed in RIPA buffer (150 mM NaCl, 50 mM TRIS, pH 8.0, 1% NP-40, 0.5% deoxycholate, 0.1% SDS) supplemented with 1× protease inhibitors cocktail (Roche). Proteins were quantified using a Bradford protein determination assay (Bio-Rad) followed by electrophoresis in 10% NuPAGE Bis-Tris gels (Life Technologies) and transfer to nitrocellulose membranes (Bio-Rad). Membranes were incubated overnight with antibodies in 1-5% non-fat milk powder in PBS/0.5% TWEEN. Proteins were detected with SuperSignal West Pico Chemiluminescent Substrate (Pierce). For immunoprecipitation assays, cells were lysed in RIPA buffer supplemented with protease inhibitors and 2 mM N-ethylmaleimide. Cell lysates were pre-cleared with protein A agarose beads (Cell Signaling) and incubated with anti-HA antibody with gentle rocking overnight at 4° C. followed by incubation with protein A agarose beads and subsequent washing and elution steps. Electrophoresis, transfer and immunoblot analysis was performed as described above.

[5] = target: T1, BRD4; experiment: OBT-JQ1 PROTAC mechanism (proteasome block, Keap1/CUL3 knockdown); assay type: cell-based; parameters: endogenous in cells
Protocol: as §2

[6] = target: T1, BRD4; experiment: BRD4 degradation in patient-derived breast cancer cells; assay type: cell-based; parameters: endogenous in cells; host or cells: patient-derived glioma cells; patient-derived breast cancer cells; details: FIG. 18
Protocol: as §2

[7] = target: T1, BRD4; experiment: BRD4 degradation in breast cancer cells; assay type: cell-based; parameters: endogenous in cells; details: FIG. 16
Protocol: as §2

[8] = target: T1, BRD4; experiment: BRD4 degradation in patient-derived glioma cells; assay type: cell-based; parameters: endogenous in cells; host or cells: patient-derived glioma cells; patient-derived breast cancer cells; details: FIG. 17
Protocol: as §2

[9] = target: T2, BRD4 (Mus musculus, UniProt Q9ESU6); experiment: BRD4 degradation in mouse glioma model in vivo (Western blotting); parameters: species or system mice; details: CT2A glioma; intratumoral, intravenous and intranasal routes; 24 hrs after last injection
T2 construct: CT2A glioma cells expressing mCherry fluorescent protein were implanted in the brain of mice; from tissue; host or cells: CT2A glioma tumour removed from mouse brain
Protocol: CT2A glioma cells expressing mCherry fluorescent protein were implanted in the brain of mice and 2 weeks later, once tumor reached a significant size, mice were injected with 0.7 mg/kg body weight of OBT-JQ1 using different injection routes (1) direct intratumoral injection (single injection), intravenously (once/day over 3 days) and intranasally (once/day over 3 days, an injection route that typically bypasses the blood-brain barrier). 24 hrs after the last injection, brains were removed and the tumor was lysed and analyzed by Western blotting for BRD4 and mCherry and actin loading controls.

[10] = Solubility in aqueous media; assay type: physicochemical

ARE activity [2]: increased ARE activity
Compound: C[S+]([O-])CCCCN=C=S (stereo not drawn) [sulforaphane]
U87 cell viability [1]: moderate decrease

solubility compared to OBT [10]: overcome the limited solubility of OBT
Compound: COc1cc(O)c(O)cc1/C=C/C(SCCO)c1ccccc1 (stereo not drawn) [AF20b, (E)-4-(3-((2-hydroxyethyl)thio)-3-phenylprop-1-en-1-yl)-5-methoxybenzene-1,2-diol]

ARE activity [2]: increased ARE activity
Compound: CCOC(=O)/C=C/C(=O)OCC [diethyl fumarate]
U87 cell viability [1]: moderate decrease

More lines, now with the values behind:

Compound: COC1=CC(=O)C(OCC(=O)NCCCOCCOCCOCCCNC(=O)CC2N=C(c3ccc(Cl)cc3)c3c(sc(C)c3C)-n3c(C)nnc32)=C/C1=C/C=C/c1ccccc1 (stereo not drawn) [OBT-JQ1, 2-(4-(4-chlorophenyl)-2,3,9-trimethyl-6H-thieno[3,2-f][1,2,4]triazolo[4,3-a][1,4]diazepin-6-yl)-N-(1-(((Z)-4-methoxy-6-oxo-3-((E)-3-phenylallylidene)cyclohexa-1,4-dien-1-yl)oxy)-2-oxo-7,10,13-trioxa-3-azahexadecan-16-yl)acetamide]
induced cell death in presence of antioxidant NAC [3]: not protected | BRD4 degradation [4]: promotes targeted degradation of BRD4 | effect of OBT-JQ1 when proteasome is blocked ([5]; FIG. 20): reverses the effect | PROTAC activity in Keap1 and CuL3 knockdown ([5]; FIG. 21): retains PROTAC activity | BRD4 degradation [6]: promotes targeted degradation of BRD4 | BRD4 degradation [7]: promotes targeted degradation of BRD4 | BRD4 degradation [8]: promotes targeted degradation of BRD4 | BRD4 degradation in brain tumors [9]: induces BRD4 degradation; also recorded: efficient BRD4 degradation

Compound: O=CC=Cc1ccccc1 [cinnamaldehyde]
U87 cell viability [1]: moderate decrease | ARE activity [2]: increased ARE activity

Compound: COc1cc(O)c(O)cc1C(/C=C/c1ccccc1)SCCO (stereo not drawn) [AF20a, (E)-4-(1-((2-hydroxyethyl)thio)-3-phenylallyl)-5-methoxybenzene-1,2-diol]
solubility compared to OBT [10]: overcome the limited solubility of OBT

Compound: COC(=O)[C@]12CCC(C)(C)C[C@H]1[C@H]1C(=O)C=C3[C@@]4(C)C=C(C#N)C(=O)C(C)(C)[C@@H]4CC[C@@]3(C)[C@]1(C)CC2 [CDDO-Me, 2-cyano-3,12-dioxoolean-1,9-dien-28-oic acid-methyl ester]
cell viability ([1]; higher doses, U87 cells, FIG. 12B): marked decrease | ARE-Gluc reporter activity ([2]; U87 and MDA-MB-231 cells, FIG. 12A): increased reporter activity
